{"source": "paper PMC12210654", "about": "“Palazestrant, a novel oral Complete Estrogen Receptor Antagonist (CERAN) and Selective Estrogen Receptor Degrader (SERD), in patients with ER+/HER2− advanced or metastatic breast cancer: phase 1/2 study results” (Breast Cancer Research : BCR, 2025)", "test": "Safety: adverse events (NCI CTCAE v5.0), electrocardiograms", "assay_type": "in vivo, human", "experimental": "Safety assessments included the monitoring of AEs, clinical laboratory parameters, electrocardiograms, and vital signs. AE severity was graded according to the National Cancer Institute Common Terminology Criteria for Adverse Events (version 5.0).\nAll DLT analyses (phase 1a) were performed in patients enrolled in the study during cycle 1 and who either received 75% of the planned palazestrant doses or experienced a DLT during cycle 1. All PK analyses were performed in patients who received at least 1 dose of palazestrant and had adequate postbaseline PK samples for characterization of PK parameters. All safety analyses were performed and PFS assessed in patients who received at least 1 dose of palazestrant. Clinical response (CR or PR) was assessed in patients who received at least 1 cycle of palazestrant, had measurable disease at baseline, and had at least 1 postbaseline tumor assessment. CBR was assessed in patients who received at least 1 cycle of palazestrant, had at least 1 postbaseline tumor assessment, and started their first dose at least 24 weeks before data cutoff. Patients who discontinued study treatment without radiographic progression within 24 weeks from the first dose were not included in the CBR analysis. PK parameters were estimated using conventional noncompartmental methods. For CBR, estimates were accompanied by 2-sided 95% confidence intervals (95% CIs). For PFS, Kaplan–Meier analyses were used to determine medians, event-free rates, and 95% CIs. For all other outcomes, categorical data were analyzed using frequencies and percentages, and continuous data were analyzed using means (standard deviation) or medians (range), as appropriate.", "key": {"[1]": {"details": "any patients treated with palazestrant"}}, "note": "Where “and” joins values, the source holds several entries; their conditions need not be identical. Equal entries are not always repeated. Entries after “also recorded” stand apart in the source; their conditions may differ."}
{"molecule": "CCCN1CC(Oc2ccc([C@@H]3c4[nH]c5ccccc5c4C[C@@H](C)N3CC(C)(C)F)cc2)C1", "note": "[palazestrant, Palazestrant]", "values": [{"measurement": "TRAE nausea, any grade", "setting": "120 mg/day (n = 86)", "result": 54.7, "unit": "%"}, {"measurement": "TRAE neutropenia, any grade", "setting": "120 mg/day (n = 86)", "result": 20.9, "unit": "%"}, {"measurement": "TRAE vomiting, any grade", "setting": "120 mg/day (n = 86)", "result": 24.4, "unit": "%"}, {"measurement": "grade 3 TRAE fatigue", "setting": "120 mg/day (n = 86)", "result": 2.3, "unit": "%"}, {"measurement": "grade 3 TRAE nausea", "setting": "120 mg/day (n = 86)", "result": 3.5, "unit": "%"}, {"measurement": "grade 3 TRAE neutropenia", "setting": "120 mg/day (n = 86)", "result": 3.5, "unit": "%"}, {"measurement": "grade 3 TRAE vomiting", "setting": "120 mg/day (n = 86)", "result": 2.3, "unit": "%"}, {"measurement": "grade 4 TEAE acute respiratory failure", "setting": "120 mg/day (n = 86)", "result": 1, "unit": "patients"}, {"measurement": "grade 4 TEAE neutropenia", "setting": "120 mg/day (n = 86)", "result": 6, "unit": "patients"}, {"measurement": "grade ≥ 3 TEAE neutropenia", "setting": "120 mg/day (n = 86)", "result": 10.5, "unit": "%"}, {"measurement": "patients with 3 grade 4 events (pulmonary embolism, diverticulitis, acute left ventricular failure)", "setting": "120 mg/day (n = 86)", "result": 1, "unit": "patient"}, {"measurement": "patients with Grade 3 TEAEs", "setting": "120 mg/day (n = 86)", "result": 24.4, "unit": "%"}, {"measurement": "patients with Grade 3 treatment-related events", "setting": "120 mg/day (n = 86)", "result": 11.6, "unit": "%"}, {"measurement": "patients with grade 4 TEAEs", "setting": "120 mg/day (n = 86)", "result": 9.3, "unit": "%"}, {"measurement": "patients with ≥ 1 TEAE of any grade", "setting": "120 mg/day (n = 86)", "result": 95.3, "unit": "%"}, {"measurement": "Treatment-related grade 4 neutropenia", "setting": "120 mg/day (n = 86), 5 patients", "result": "5.8% and 6%"}, {"measurement": "time of grade 4 neutropenia events after initiation of palazestrant", "setting": "120 mg/day, approximately", "result": "6-8 weeks"}, {"measurement": "treatment discontinuation due to AEs", "setting": "60 or 120 mg/day (n = 116)", "result": 6.0, "unit": "%"}, {"measurement": "severity of most TEAEs", "setting": "RP2D of 120 mg/day", "result": "grade 1–2; also recorded: grade 1 or 2"}, {"measurement": "severity of the majority of TRAEs", "setting": "RP2D of 120 mg/day", "result": "grade 1 or 2"}, {"measurement": "TEAE bradycardia", "setting": "RP2D, 120 mg/day", "result": 9, "unit": "%"}, {"measurement": "TEAE photopsia", "setting": "RP2D, 120 mg/day", "result": 5, "unit": "%"}, {"measurement": "grade of all bradycardia and photopsia events", "setting": "RP2D, 120 mg/day", "result": "grade 1"}, {"measurement": "treatment-related diarrhea of any grade", "setting": "RP2D, 120 mg/day", "result": 13, "unit": "%"}, {"measurement": "treatment-related diarrhea, grade ≥ 3", "setting": "RP2D, 120 mg/day", "result": "no grade ≥ 3 events"}, {"measurement": "severity of the majority of TEAEs", "setting": "all dose-escalation cohorts (30 to 300 mg)", "result": "grade 1 or 2"}, {"measurement": "QTcF values", "setting": "[1]", "result": "≤ 500", "unit": "ms"}, {"measurement": "changes in QTcF", "setting": "[1]", "result": "no clinically significant changes"}, {"measurement": "discontinuations due to AEs assessed as related to palazestrant", "setting": "of seven patients who discontinued due to AEs", "result": 5, "unit": "patients"}, {"measurement": "neutropenia resolved upon treatment discontinuation", "setting": "of the 5 patients with treatment-related grade 4 neutropenia, 120 mg/day", "result": 2, "unit": "patients"}, {"measurement": "grade 4 neutropenia resolved following discontinuation of palazestrant", "setting": "of the 6 patients with grade 4 neutropenia", "result": 3, "unit": "patients"}, {"measurement": "TEAE Constipation, Toxicity Grade All", "setting": "phase 1a, 30 mg (N=5)", "result": "1 (20.0)"}, {"measurement": "TEAE Constipation, Toxicity Grade G3", "setting": "phase 1a, 30 mg (N=5)", "result": 0}, {"measurement": "TEAE Constipation, Toxicity Grade G4", "setting": "phase 1a, 30 mg (N=5)", "result": 0}, {"measurement": "TEAE Decreased appetite, Toxicity Grade All", "setting": "phase 1a, 30 mg (N=5)", "result": "1 (20.0)"}, {"measurement": "TEAE Decreased appetite, Toxicity Grade G3", "setting": "phase 1a, 30 mg (N=5)", "result": 0}, {"measurement": "TEAE Decreased appetite, Toxicity Grade G4", "setting": "phase 1a, 30 mg (N=5)", "result": 0}, {"measurement": "TEAE Diarrhea, Toxicity Grade All", "setting": "phase 1a, 30 mg (N=5)", "result": "2 (40.0)"}, {"measurement": "TEAE Diarrhea, Toxicity Grade G3", "setting": "phase 1a, 30 mg (N=5)", "result": 0}, {"measurement": "TEAE Diarrhea, Toxicity Grade G4", "setting": "phase 1a, 30 mg (N=5)", "result": 0}, {"measurement": "TEAE Fatigue, Toxicity Grade All", "setting": "phase 1a, 30 mg (N=5)", "result": "2 (40.0)"}, {"measurement": "TEAE Fatigue, Toxicity Grade G3", "setting": "phase 1a, 30 mg (N=5)", "result": 0}, {"measurement": "TEAE Fatigue, Toxicity Grade G4", "setting": "phase 1a, 30 mg (N=5)", "result": 0}, {"measurement": "TEAE Headache, Toxicity Grade All", "setting": "phase 1a, 30 mg (N=5)", "result": "1 (20.0)"}, {"measurement": "TEAE Headache, Toxicity Grade G3", "setting": "phase 1a, 30 mg (N=5)", "result": 0}, {"measurement": "TEAE Headache, Toxicity Grade G4", "setting": "phase 1a, 30 mg (N=5)", "result": 0}, {"measurement": "TEAE Maculopapular rash, Toxicity Grade All", "setting": "phase 1a, 30 mg (N=5)", "result": "1 (20.0)"}, {"measurement": "TEAE Maculopapular rash, Toxicity Grade G3", "setting": "phase 1a, 30 mg (N=5)", "result": 0}, {"measurement": "TEAE Maculopapular rash, Toxicity Grade G4", "setting": "phase 1a, 30 mg (N=5)", "result": 0}, {"measurement": "TEAE Nausea, Toxicity Grade All", "setting": "phase 1a, 30 mg (N=5)", "result": "2 (40.0)"}, {"measurement": "TEAE Nausea, Toxicity Grade G3", "setting": "phase 1a, 30 mg (N=5)", "result": 0}, {"measurement": "TEAE Nausea, Toxicity Grade G4", "setting": "phase 1a, 30 mg (N=5)", "result": 0}, {"measurement": "TEAE Neutropenia, Toxicity Grade G3", "setting": "phase 1a, 30 mg (N=5)", "result": 0}, {"measurement": "TEAE Neutropenia, Toxicity Grade G4", "setting": "phase 1a, 30 mg (N=5)", "result": "1 (20.0)"}, {"measurement": "TEAE Vomiting, Toxicity Grade All", "setting": "phase 1a, 30 mg (N=5)", "result": "1 (20.0)"}, {"measurement": "TEAE Vomiting, Toxicity Grade G3", "setting": "phase 1a, 30 mg (N=5)", "result": 0}, {"measurement": "TEAE Vomiting, Toxicity Grade G4", "setting": "phase 1a, 30 mg (N=5)", "result": 0}, {"measurement": "TEAE Neutropenia, Toxicity Grade All", "setting": "phase 1a, 30 mg (N=5), includes neutropenia and neutrophil count decreased", "result": "1 (20.0)"}, {"measurement": "TEAE Constipation, Toxicity Grade All", "setting": "phase 1a, 60 mg (N=6)", "result": "1 (16.7)"}, {"measurement": "TEAE Constipation, Toxicity Grade G3", "setting": "phase 1a, 60 mg (N=6)", "result": 0}, {"measurement": "TEAE Constipation, Toxicity Grade G4", "setting": "phase 1a, 60 mg (N=6)", "result": 0}, {"measurement": "TEAE Decreased appetite, Toxicity Grade All", "setting": "phase 1a, 60 mg (N=6)", "result": 0}, {"measurement": "TEAE Decreased appetite, Toxicity Grade G3", "setting": "phase 1a, 60 mg (N=6)", "result": 0}, {"measurement": "TEAE Decreased appetite, Toxicity Grade G4", "setting": "phase 1a, 60 mg (N=6)", "result": 0}, {"measurement": "TEAE Diarrhea, Toxicity Grade All", "setting": "phase 1a, 60 mg (N=6)", "result": "2 (33.3)"}, {"measurement": "TEAE Diarrhea, Toxicity Grade G3", "setting": "phase 1a, 60 mg (N=6)", "result": 0}, {"measurement": "TEAE Diarrhea, Toxicity Grade G4", "setting": "phase 1a, 60 mg (N=6)", "result": 0}, {"measurement": "TEAE Fatigue, Toxicity Grade All", "setting": "phase 1a, 60 mg (N=6)", "result": "3 (50.0)"}, {"measurement": "TEAE Fatigue, Toxicity Grade G3", "setting": "phase 1a, 60 mg (N=6)", "result": 0}, {"measurement": "TEAE Fatigue, Toxicity Grade G4", "setting": "phase 1a, 60 mg (N=6)", "result": 0}, {"measurement": "TEAE Headache, Toxicity Grade All", "setting": "phase 1a, 60 mg (N=6)", "result": "1 (16.7)"}, {"measurement": "TEAE Headache, Toxicity Grade G3", "setting": "phase 1a, 60 mg (N=6)", "result": 0}, {"measurement": "TEAE Headache, Toxicity Grade G4", "setting": "phase 1a, 60 mg (N=6)", "result": 0}, {"measurement": "TEAE Maculopapular rash, Toxicity Grade All", "setting": "phase 1a, 60 mg (N=6)", "result": "1 (16.7)"}, {"measurement": "TEAE Maculopapular rash, Toxicity Grade G3", "setting": "phase 1a, 60 mg (N=6)", "result": 0}, {"measurement": "TEAE Maculopapular rash, Toxicity Grade G4", "setting": "phase 1a, 60 mg (N=6)", "result": 0}, {"measurement": "TEAE Nausea, Toxicity Grade All", "setting": "phase 1a, 60 mg (N=6)", "result": "2 (33.3)"}, {"measurement": "TEAE Nausea, Toxicity Grade G3", "setting": "phase 1a, 60 mg (N=6)", "result": 0}, {"measurement": "TEAE Nausea, Toxicity Grade G4", "setting": "phase 1a, 60 mg (N=6)", "result": 0}, {"measurement": "TEAE Neutropenia, Toxicity Grade G3", "setting": "phase 1a, 60 mg (N=6)", "result": 0}, {"measurement": "TEAE Neutropenia, Toxicity Grade G4", "setting": "phase 1a, 60 mg (N=6)", "result": 0}, {"measurement": "TEAE Vomiting, Toxicity Grade All", "setting": "phase 1a, 60 mg (N=6)", "result": "1 (16.7)"}]}
